Where no end group is shown, it is not given here.
What was measured:
morphine-dependent mouse = experiment: Inhibition of the naloxone-triggered withdrawal leaps of the morphine-dependent mouse; format: in vivo; conditions: 30 mg . kg^-1 s.c., positive control
Method: In order to produce the dependence a compressed tablet, which contained 75 mg of morphine (base) and which progressively dissolved with continuous liberation of the morphine, was implanted under the dorsal skin of male mice (weight about 22 g). On the third day after the implantation the morphine antagonist naloxone in a dosage of 0.1 mg/kg was administered subcutaneously to the animals in order to trigger off the withdrawal leaps.
After the injection, the leaps of each individual animal were counted for 20 minutes. The group median value was calculated from the total leaps of 8 animals, which formed a group. As the positive control the animals of one group received 30 mg/kg of morphine subcutaneously 30 minutes before administration of the antagonist. Two to four groups received 10 ml/kg of physiological sodium chloride solution (negative control) 2 hours before the naloxone administration intravenously. The remaining groups received DSIP in various dosages (0.01, 0.015, 0.03, 0.06 and 0.1 mg/kg, intravenously and 0.03, 0.1 and 0.3 mg/kg, subcutaneously) 2 hours before the naloxone administration. The dosage median values and, respectively, control median values were calculated from all individual values per dosage and, respectively, the positive and negative controls.

dogs [1] = conditions: dog, in vivo
Method: (§1) Toxicological studies were carried out on 12 male and 12 female rats as well as on 3 male and 3 female dogs per dosage. For this purpose DSIP was dissolved in physiological sodium chloride solution and administered intravenously daily for 4 weeks in the dosages of 0.6, 1.8 and 6 mg/kg. At an interval of 2 weeks during these studies the hematological, hematochemical and the urine status were determined, and the electrocardiogram was recorded and analyzed
(§2) At the termination of the aforementioned studies all animals were painlessly killed and there followed the autopsy besides the removal of organ samples for histological investigations.

dogs [2] = experiment: 4-week intravenous toxicological study in dogs
Method: as §1, §2

rats [3] = conditions: rat, in vivo
Method: as §1, §2

[4] = system: alcoholic or methadone- or heroin-dependent patients; conditions: human, in vivo
Method: Of the 25 alcoholic patients 8 were on admission already in delirium tremens to a medium to severe degrees. After the first subjective and objective withdrawal signs manifested themselves the patients received up to 4 intravenous infusions of in each case 0.0214 mg/kg of DSIP daily. For this purpose, the substance was dissolved in physiological sodium chloride solution and infused in the course of 5 minutes.
The duration of treatment amounted to a maximum of 3 days.

rats [5] = experiment: 4-week intravenous toxicological study in rats
Method: as §1, §2

[6] = maximum dosage (6 mg/kg i.v. daily for 4 weeks)

| Molecule | Leaps/animal (median) (morphine-dependent mouse; 30 minutes before naloxone 0.1 mg/kg s.c., leaps counted for 20 minutes) [Leaps/animal] | % of a negative control (morphine-dependent mouse; 30 minutes before naloxone) [%] | Tolerance of the dosages (side effects) (dogs [1]) | Local tolerance at the injection sites (dogs [1]; iv) | Histological analysis of about 30 organs and of the injection sites (dogs [2]; i.v. daily for 4 weeks) | Changes in the electrocardiogram (dogs [2]; [6]) | Hematological, hematochemical and urine values (dogs [2]; [6]) | Tolerance of the dosages (side effects) (rats [3]) | Local tolerance at the injection sites (rats [3]; iv) | Tolerance of DSIP: poor, number of patients [4] [patients] | Histological analysis of about 30 organs and of the injection sites (rats [5]; i.v. daily for 4 weeks) | Changes in the electrocardiogram (rats [5]; [6]) | Hematological, hematochemical and urine values (rats [5]; [6]) |
| --- | --- | --- | --- | --- | --- | --- | --- | --- | --- | --- | --- | --- | --- |
| CN1CC[C@]23c4c5ccc(O)c4O[C@H]2[C@@H](O)C=C[C@H]3[C@H]1C5 [Morphine, morphine] | 43 | 27 |  |  |  |  |  |  |  |  |  |  |  |
| WAGGDASGE [DSIP, Trp--Ala--Gly--Gly--Asp--Ala--Ser--Gly--Glu] |  |  | tolerated without any side effects | excellent | not the slightest evidence of damage to organs | no changes in the electrocardiogram | within the physiological limits | tolerated without any side effects | excellent | 2 | not the slightest evidence of damage to organs | no changes in the electrocardiogram | within the physiological limits |

Reference: patent US4444758A, “Nonapeptide for treating addictive drug withdrawal conditions” (priority 1981, dated 1984)
